From patent publication US4389414A, “Prostaglandin compositions” (Syntex (U.S.A.) Inc., priority 1981, dated 1983)
Several values for one entry are separate records, joined by “and”; a condition that tells them apart may be missing. Equal values may be shown once.

Test: Absorption rate of carbon-14 Compound A from different vehicles after SQ or IM injection (Example 2, Table I)
Format: in vivo, rats
Settings: for Relative Percent Absorption: compared to aqueous buffer over 6 hours
Protocol: A series of experiments was carried out to determine the absorption rate of a compound which are useful in the composition of this invention as compared to other compositions which are not included within the scope of the claims of the invention. In each experiment 56 rats were used. Two groups of 27 rats are required for the test formulations and the two remaining rats are used to obtain blank plasma samples. […] Each composition is prepared by dissolving 2.7 milligrams of the compound in 10 milliliters of the solvent. This represents approximately 5 microcuries of carbon 14 and 41 micrograms of dl-9α,11α,15α-trihydroxy-16-phenoxy-17,18,19,20-tetranorprosta-4,5,13-trans-trienoic acid (Compound A). Blood samples from each of three rats from each group are obtained by […] at the following time points after injection: 15 minutes, 30 minutes, 45 minutes, 60 minutes, 2 hours, 3 hours, 4 hours, 5 hours and 6 hours. The two untreated rats are sampled to obtain blank plasma sample.
*Compared to aqueous buffer over 6 hours.

[1] = vehicle 90% Glycerin H2O, SQ, .15 ml, 5 μCi
[2] = vehicle Aq. Buffer, IM, .15 ml, 5 μCi
[3] = vehicle Aq. Buffer, SQ, .15 ml, 5 μCi
[4] = vehicle Glycerin, SQ, .15 ml, 5 μCi
[5] = vehicle PEG 400, IM, .15 ml, 5 μCi
[6] = vehicle PEG 400, SQ, .15 ml, 5 μCi
[7] = vehicle PEG 400, SQ, .30 ml, 10 μCi

Absorption Rate Constant Ka [1]: 6.5 hr^1
Relative Percent Absorption [1]: 51.5%
Absorption Rate Constant Ka [2]: 10.14 hr^1
Relative Percent Absorption [2]: 100%
Absorption Rate Constant Ka [3]: 10.14 hr^1
Relative Percent Absorption [3]: 60.9%
Absorption Rate Constant Ka [4]: 5.0 hr^1
Relative Percent Absorption [4]: 50.4%
Absorption Rate Constant Ka [5]: 3.7 hr^1
Relative Percent Absorption [5]: 35.5%
Absorption Rate Constant Ka [6]: 3.7 hr^1
Relative Percent Absorption [6]: 27.6% and 31.4%
Absorption Rate Constant Ka [7]: 3.7 hr^1
Relative Percent Absorption [7]: 26.2%
Structure (SMILES): O=C(O)CCC=C=CC[C@@H]1[C@@H](/C=C/[C@@H](O)COc2ccccc2)[C@H](O)C[C@@H]1O (relative stereo) [Compound A, dl-9α,11α,15α-trihydroxy-16-phenoxy-17,18,19,20-tetranorprosta-4,5,13-trans-trienoic acid]
